pIC50: −log10 of the molar value.
Target: T1, KDM3A (Homo sapiens, UniProt Q9Y4C1)
T1 sequence (Q9Y4C1 1-1321): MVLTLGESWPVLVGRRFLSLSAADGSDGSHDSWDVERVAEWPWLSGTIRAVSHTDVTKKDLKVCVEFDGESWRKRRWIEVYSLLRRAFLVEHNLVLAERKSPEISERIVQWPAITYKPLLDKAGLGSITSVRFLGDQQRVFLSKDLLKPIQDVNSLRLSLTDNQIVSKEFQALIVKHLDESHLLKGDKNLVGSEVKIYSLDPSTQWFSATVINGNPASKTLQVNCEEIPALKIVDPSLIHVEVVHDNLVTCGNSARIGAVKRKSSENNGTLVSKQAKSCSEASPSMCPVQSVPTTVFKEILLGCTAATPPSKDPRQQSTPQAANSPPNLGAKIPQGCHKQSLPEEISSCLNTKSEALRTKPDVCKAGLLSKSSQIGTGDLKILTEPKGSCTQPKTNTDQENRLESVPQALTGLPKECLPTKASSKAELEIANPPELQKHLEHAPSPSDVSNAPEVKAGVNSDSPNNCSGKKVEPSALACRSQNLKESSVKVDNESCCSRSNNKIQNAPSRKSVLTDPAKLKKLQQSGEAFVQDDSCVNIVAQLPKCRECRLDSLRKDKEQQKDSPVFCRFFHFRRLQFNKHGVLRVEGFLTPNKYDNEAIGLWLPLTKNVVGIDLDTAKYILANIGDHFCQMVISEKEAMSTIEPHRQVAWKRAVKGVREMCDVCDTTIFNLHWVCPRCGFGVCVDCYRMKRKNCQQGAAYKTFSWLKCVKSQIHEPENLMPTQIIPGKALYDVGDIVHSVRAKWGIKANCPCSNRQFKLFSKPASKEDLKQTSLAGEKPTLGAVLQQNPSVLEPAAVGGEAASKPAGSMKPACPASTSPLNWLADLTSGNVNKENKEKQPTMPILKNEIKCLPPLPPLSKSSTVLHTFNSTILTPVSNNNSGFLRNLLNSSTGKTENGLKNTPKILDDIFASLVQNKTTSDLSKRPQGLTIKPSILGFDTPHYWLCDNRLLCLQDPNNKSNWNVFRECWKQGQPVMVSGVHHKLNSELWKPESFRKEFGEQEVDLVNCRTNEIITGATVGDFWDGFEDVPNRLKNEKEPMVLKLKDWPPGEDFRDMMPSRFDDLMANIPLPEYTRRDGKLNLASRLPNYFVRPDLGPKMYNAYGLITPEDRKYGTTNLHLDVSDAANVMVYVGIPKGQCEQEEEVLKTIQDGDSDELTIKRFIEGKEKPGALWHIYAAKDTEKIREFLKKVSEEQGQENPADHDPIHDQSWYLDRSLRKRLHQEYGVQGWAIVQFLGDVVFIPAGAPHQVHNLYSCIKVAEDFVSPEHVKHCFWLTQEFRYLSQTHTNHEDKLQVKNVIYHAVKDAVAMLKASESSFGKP
Assay: KDM3 AlphaScreen assay (Table 2, ASSAY 9)
Type: biochemical
Settings: for pIC50: ASSAY 9
Procedure: AlphaScreen assays were performed in 384-well plate format using white AlphaPlate™ (PerkinElmer®, USA), and transfer of pre-diluted compound (100 nL) was performed using a Janus® Workstation (PerkinElmer®, USA). All subsequent steps were carried out in assay buffer (50 mM 4-(2-hydroxyethyl)-1-piperazineethanesulfonic acid (HEPES), pH 7.5, 0.1% (wt/vol) bovine serum albumin (BSA) and 0.01% (vol/vol) Tween®20). In brief, 10 μL of assay buffer containing demethylase enzyme (2 nM Final) was pre-incubated for 15 min with dilutions of compound. The enzyme reaction was initiated by the addition of substrate (5 μL) consisting of L-ascorbic acid (100 μM Final), […] (OG) (5 μM Final), FAS (10 μM Final) and histone H3(1-21)K9Me3-GGK Biotin (100 nM Final). The enzyme reaction was allowed to proceed for 30 minutes and was stopped by the addition of 5 μL of assay buffer containing ethylenediaminetetraacetic acid (EDTA) (40 mM) and NaCl (1,200 mM). The final concentration of DMSO was 1%. Streptavidin donor beads (0.08 mg/ml) and protein-A-conjugated acceptor beads (0.08 mg/ml) were preincubated for 1 h with antibody to methyl mark (300 ng/mL Final), and the presence of histone H3 product methyl mark was detected using the preincubated AlphaScreen™ beads (5 μL). Detection was allowed to proceed for 2 h at room temperature, and the assay plates were read on the EnVision® 2104 plate reader. Data were normalized to the (no-enzyme) control, and the IC50 values were determined via nonlinear regression curve fit using GraphPad Prism 7.

SMILES	pIC50	KDM3A inhibition, verdict in words on Table 2
CN(C)c1ccc(CNC(=O)/C=C\C(=O)N2CCC(Oc3ccc(-c4ccc(N(C)C)cc4)cn3)CC2)cc1 [KDM3-47, (Z)-N-(4-(dimethylamino)benzyl)-4-(4-((5-(4-(dimethylamino)phenyl)pyridin-2-yl)oxy)piperidin-1-yl)-4-oxobut-2-enamide]	4.89	
CN(C)c1ccc(-c2ccc(OC3CCN(C(=O)c4cn(S(=O)(=O)c5ccccc5)c5ccccc45)CC3)nc2)cc1 [Compound 11]	4.47	potent KDM3A inhibitors
CN(C)c1ccc(CCC(=O)Nc2ccc(C(F)(F)F)cc2C(=O)N2CCC(Oc3ccc(-c4ccc(N(C)C)cc4)cn3)CC2)cc1 [KDM3-53, 3-(4-(dimethylamino)phenyl)-N-(2-(4-((5-(4-(dimethylamino)phenyl)pyridin-2-yl)oxy)piperidine-1-carbonyl)-4-(trifluoromethyl)phenyl)propanamide]	4.70	
CN(C)c1ccc(CCC(=O)Nc2ccc(OC(F)(F)F)cc2C(=O)N2CCC(Oc3ccc(-c4ccc(N(C)C)cc4)cn3)CC2)cc1 [KDM3-59, 3-(4-(dimethylamino)phenyl)-N-(2-(4-((5-(4-(dimethylamino)phenyl)pyridin-2-yl)oxy)piperidine-1-carbonyl)-4-(trifluoromethoxy)phenyl)propanamide]	4.63	

The remaining molecules from weak to strong by pIC50, led by results:

pIC50	KDM3A inhibition, verdict in words on Table 2	SMILES
4.46		COc1ccc(S(=O)(=O)Nc2ccc(F)cc2C(=O)N2CCC(Oc3ccc(-c4ccc(N(C)C)cc4)cn3)CC2)cc1OC [KDM3-60]
4.80		CN(C)c1ccc(-c2ccc(OC3CCN(C(=O)c4ccccc4OC(=O)c4ccccc4O)CC3)nc2)cc1 [JADA196, 2-(4-((5-(4-(dimethylamino)phenyl)pyridin-2-yl)oxy)piperidine-1-carbonyl)phenyl 2-hydroxybenzoate]
4.85		CN(C)c1ccc(CCC(=O)Nc2cc(F)ccc2C(=O)N2CCC(Oc3ccc(-c4ccc(N(C)C)cc4)cn3)CC2)cc1 [KDM3-51, 3-(4-(dimethylamino)phenyl)-N-(2-(4-((5-(4-(dimethylamino)phenyl)pyridin-2-yl)oxy)piperidine-1-carbonyl)-5-fluorophenyl)propanamide]
5.12	potent KDM3A inhibitors	CN(C)c1ccc(CNc2ccc(F)cc2C(=O)N2CCN(Cc3ccc(N(C)C)cc3)CC2)cc1 [Compound 5, (2-((4-(dimethylamino)benzyl)amino)-5-fluorophenyl)(4-(4-(dimethylamino)benzyl)piperazin-1-yl)methanone]
